Earlier results, collected in patent US20110287117A1, “Adjuvant Therapy in the Treatment of Gouty Arthritis” (UNIVERSITY OF MEDICINE AND DENTISTRY OF NEW JERSEY, priority 2009, published 2011).

Conditions: in vivo

## recombinant IL-6: recombinant interleukin 6 administered in a cited study
  serum SU level: lowered
  urinary secretion of uric acid: increased
